Assay results: ChEMBL document CHEMBL5505977, “Discovery of novel pyrrolo[2,3-d]pyrimidines as potent menin-mixed lineage leukemia interaction inhibitors” (Eur J Med Chem, 2024)

Experiments:
Menin = molecular target: T1, Menin (Homo sapiens, UniProt O00255); assay: Binding affinity to menin (unknown origin) incubated for 1 hr by fluorescence polarization assay
T1 sequence (O00255 whole entry): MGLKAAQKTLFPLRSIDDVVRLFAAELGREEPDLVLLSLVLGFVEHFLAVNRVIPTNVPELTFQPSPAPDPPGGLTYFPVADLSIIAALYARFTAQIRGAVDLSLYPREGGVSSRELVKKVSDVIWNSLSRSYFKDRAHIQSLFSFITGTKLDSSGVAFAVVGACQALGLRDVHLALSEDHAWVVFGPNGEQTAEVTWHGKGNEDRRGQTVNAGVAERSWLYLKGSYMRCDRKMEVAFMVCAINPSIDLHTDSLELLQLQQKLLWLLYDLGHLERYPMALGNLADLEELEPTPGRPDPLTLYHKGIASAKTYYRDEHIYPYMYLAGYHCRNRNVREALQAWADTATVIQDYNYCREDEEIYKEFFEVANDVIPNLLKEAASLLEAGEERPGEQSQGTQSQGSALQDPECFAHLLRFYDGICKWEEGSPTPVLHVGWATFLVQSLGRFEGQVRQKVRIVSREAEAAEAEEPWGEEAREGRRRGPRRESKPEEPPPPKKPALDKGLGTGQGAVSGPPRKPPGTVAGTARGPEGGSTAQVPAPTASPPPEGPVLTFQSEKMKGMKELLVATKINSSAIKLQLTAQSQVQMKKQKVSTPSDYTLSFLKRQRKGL

HL-60 = assay: Antiproliferative activity against human HL-60 cells incubated for 72 hrs by MTT assay; assay type: functional, cell-based; conditions: HL-60, 72 h
MV4-11 [1] = assay: cells; conditions: Homo sapiens, MV4-11, 72 h
Description: Antiproliferative activity against human MV4-11 cells incubated for 72 hrs by MTT assay

SU-DHL-6 = assay: Antiproliferative activity against human SU-DHL-6 cells incubated for 72 hrs by MTT assay; assay type: functional, cell-based; conditions: SU-DHL-6, 72 h
Pfeiffer = assay: Antiproliferative activity against human Pfeiffer cells incubated for 72 hrs by MTT assay; assay type: functional, cell-based
Raji = assay: Antiproliferative activity against human Raji cells incubated for 72 hrs by MTT assay; assay type: functional, cell-based
Ramos = assay: Antiproliferative activity against human Ramos cells incubated for 72 hrs by MTT assay; assay type: functional, cell-based
HCT-116 = assay: Antiproliferative activity against human HCT-116 cells incubated for 72 hrs by MTT assay; assay type: functional, cell-based; conditions: HCT-116, 72 h
MCF7 = assay: Antiproliferative activity against human MCF7 cells incubated for 72 hrs by MTT assay; assay type: functional, cell-based; conditions: MCF7, 72 h
[2] = Antiproliferative activity against human NCM460 cells incubated for 72 hrs by MTT assay; assay type: toxicity, cell-based
MV4-11 [3] = assay: Induction of apoptosis in human MV4-11 cells assessed as viable cells at 1 uM incubated for 24 hrs by FITC Annexin-V/PI staining based flow cytometry analysis (reference value: 94.27%); assay type: functional; conditions: read-out: Activity
MV4-11 [4] = assay: Induction of apoptosis in human MV4-11 cells assessed as early apoptotic cells at 1 uM incubated for 24 hrs by FITC Annexin-V/PI staining based flow cytometry analysis (reference value: 2.68%); assay type: functional
MV4-11 [5] = assay: Induction of apoptosis in human MV4-11 cells assessed as late apoptotic cells at 1 uM incubated for 24 hrs by FITC Annexin-V/PI staining based flow cytometry analysis (reference value: 3%); assay type: functional
MV4-11 [6] = assay: Induction of apoptosis in human MV4-11 cells assessed as necrotic cells at 1 uM incubated for 24 hrs by FITC Annexin-V/PI staining based flow cytometry analysis (reference value: 0.04%); assay type: functional
MV4-11 [7] = assay: Induction of apoptosis in human MV4-11 cells assessed as viable cells at 10 uM incubated for 24 hrs by FITC Annexin-V/PI staining based flow cytometry analysis (reference value: 94.27%); assay type: functional; conditions: read-out: Activity
MV4-11 [8] = assay: Induction of apoptosis in human MV4-11 cells assessed as early apoptotic cells at 10 uM incubated for 24 hrs by FITC Annexin-V/PI staining based flow cytometry analysis (reference value: 2.68%); assay type: functional
MV4-11 [9] = assay: Induction of apoptosis in human MV4-11 cells assessed as late apoptotic cells at 10 uM incubated for 24 hrs by FITC Annexin-V/PI staining based flow cytometry analysis (reference value: 3%); assay type: functional
MV4-11 [10] = assay: Induction of apoptosis in human MV4-11 cells assessed as necrotic cells at 10 uM incubated for 24 hrs by FITC Annexin-V/PI staining based flow cytometry analysis (reference value: 0.04%); assay type: functional
MV4-11 [11] = assay: Induction of apoptosis in human MV4-11 cells assessed as viable cells at 0.1 uM incubated for 24 hrs by FITC Annexin-V/PI staining based flow cytometry analysis (reference value: 94.27%); assay type: functional; conditions: read-out: Activity
MV4-11 [12] = assay: Induction of apoptosis in human MV4-11 cells assessed as early apoptotic cells at 0.1 uM incubated for 24 hrs by FITC Annexin-V/PI staining based flow cytometry analysis (reference value: 2.68%); assay type: functional
MV4-11 [13] = assay: Induction of apoptosis in human MV4-11 cells assessed as late apoptotic cells at 0.1 uM incubated for 24 hrs by FITC Annexin-V/PI staining based flow cytometry analysis (reference value: 3%); assay type: functional
MV4-11 [14] = assay: Induction of apoptosis in human MV4-11 cells assessed as necrotic cells at 0.1 uM incubated for 24 hrs by FITC Annexin-V/PI staining based flow cytometry analysis (reference value: 0.04%); assay type: functional
MV4-11 [15] = assay: Induction of cell cycle arrest in human MV4-11 cells assessed as accumulation of cells at G0/G1 phase incubated for 24 hrs by PI/RNase staining based flow cytometry analysis; assay type: functional; conditions: dose 0.1-10 µM
MV4-11 [16] = assay: Effect on cell differentiation in human MV4-11 cells assessed as decrease in HOXA9 expression level incubated for 48 hrs by qPCR analysis; assay type: functional, cell-based
MV4-11 [17] = assay: Effect on cell differentiation in human MV4-11 cells assessed as decrease in HOXA9 expression level at 0.5 uM by qPCR analysis; assay type: functional, cell-based; conditions: time 24-48 hrs, TDE = time-dependent effect
MV4-11 [18] = assay: Effect on cell differentiation in human MV4-11 cells assessed as decrease in MEIS1 expression level incubated for 48 hrs by qPCR analysis; assay type: functional, cell-based
MV4-11 [19] = assay: Effect on cell differentiation in human MV4-11 cells assessed as decrease in MEIS1 expression level at 0.5 uM by qPCR analysis; assay type: functional, cell-based; conditions: time 24-48 hrs, TDE = time-dependent effect
MV4-11 [20] = assay: Effect on cell differentiation in human MV4-11 cells assessed as assessed as increase in CD11b protein expression at M2-1 at 1 uM incubated for 7 days by flow cytometry analysis (reference value: 86.12%); assay type: functional; conditions: time 7 day
MV4-11 [21] = assay: Effect on cell differentiation in human MV4-11 cells assessed as assessed as increase in CD11b protein expression at M2-2 at 1 uM incubated for 7 days by flow cytometry analysis (reference value: 13.86%); assay type: functional; conditions: time 7 day
MV4-11 [22] = assay: Effect on cell differentiation in human MV4-11 cells assessed as assessed as increase in CD11b protein expression at M2-1 at 10 uM incubated for 7 days by flow cytometry analysis (reference value: 86.12%); assay type: functional; conditions: time 7 day
MV4-11 [23] = assay: Effect on cell differentiation in human MV4-11 cells assessed as assessed as increase in CD11b protein expression at M2-2 at 10 uM incubated for 7 days by flow cytometry analysis (reference value: 13.86%); assay type: functional; conditions: time 7 day
MV4-11 [24] = assay: Effect on cell differentiation in human MV4-11 cells assessed as assessed as increase in CD11b protein expression at M2-1 at 0.1 uM incubated for 7 days by flow cytometry analysis (reference value: 86.12%); assay type: functional; conditions: time 7 day
MV4-11 [25] = assay: Effect on cell differentiation in human MV4-11 cells assessed as assessed as increase in CD11b protein expression at M2-2 at 0.1 uM incubated for 7 days by flow cytometry analysis (reference value: 13.86%); assay type: functional; conditions: time 7 day
[26] = molecular target: Menin/Histone-lysine N-methyltransferase MLL (Homo sapiens, UniProt O00255); assay: Inhibition of human menin-MLL (unknown origin) protein-protein interaction incubated for 0.5 to 4 hrs by TR-FRET assay
Menin/Histone-lysine N-methyltransferase MLL, sequence (Q03164 1-2718 partner limits assumed, one chain of several): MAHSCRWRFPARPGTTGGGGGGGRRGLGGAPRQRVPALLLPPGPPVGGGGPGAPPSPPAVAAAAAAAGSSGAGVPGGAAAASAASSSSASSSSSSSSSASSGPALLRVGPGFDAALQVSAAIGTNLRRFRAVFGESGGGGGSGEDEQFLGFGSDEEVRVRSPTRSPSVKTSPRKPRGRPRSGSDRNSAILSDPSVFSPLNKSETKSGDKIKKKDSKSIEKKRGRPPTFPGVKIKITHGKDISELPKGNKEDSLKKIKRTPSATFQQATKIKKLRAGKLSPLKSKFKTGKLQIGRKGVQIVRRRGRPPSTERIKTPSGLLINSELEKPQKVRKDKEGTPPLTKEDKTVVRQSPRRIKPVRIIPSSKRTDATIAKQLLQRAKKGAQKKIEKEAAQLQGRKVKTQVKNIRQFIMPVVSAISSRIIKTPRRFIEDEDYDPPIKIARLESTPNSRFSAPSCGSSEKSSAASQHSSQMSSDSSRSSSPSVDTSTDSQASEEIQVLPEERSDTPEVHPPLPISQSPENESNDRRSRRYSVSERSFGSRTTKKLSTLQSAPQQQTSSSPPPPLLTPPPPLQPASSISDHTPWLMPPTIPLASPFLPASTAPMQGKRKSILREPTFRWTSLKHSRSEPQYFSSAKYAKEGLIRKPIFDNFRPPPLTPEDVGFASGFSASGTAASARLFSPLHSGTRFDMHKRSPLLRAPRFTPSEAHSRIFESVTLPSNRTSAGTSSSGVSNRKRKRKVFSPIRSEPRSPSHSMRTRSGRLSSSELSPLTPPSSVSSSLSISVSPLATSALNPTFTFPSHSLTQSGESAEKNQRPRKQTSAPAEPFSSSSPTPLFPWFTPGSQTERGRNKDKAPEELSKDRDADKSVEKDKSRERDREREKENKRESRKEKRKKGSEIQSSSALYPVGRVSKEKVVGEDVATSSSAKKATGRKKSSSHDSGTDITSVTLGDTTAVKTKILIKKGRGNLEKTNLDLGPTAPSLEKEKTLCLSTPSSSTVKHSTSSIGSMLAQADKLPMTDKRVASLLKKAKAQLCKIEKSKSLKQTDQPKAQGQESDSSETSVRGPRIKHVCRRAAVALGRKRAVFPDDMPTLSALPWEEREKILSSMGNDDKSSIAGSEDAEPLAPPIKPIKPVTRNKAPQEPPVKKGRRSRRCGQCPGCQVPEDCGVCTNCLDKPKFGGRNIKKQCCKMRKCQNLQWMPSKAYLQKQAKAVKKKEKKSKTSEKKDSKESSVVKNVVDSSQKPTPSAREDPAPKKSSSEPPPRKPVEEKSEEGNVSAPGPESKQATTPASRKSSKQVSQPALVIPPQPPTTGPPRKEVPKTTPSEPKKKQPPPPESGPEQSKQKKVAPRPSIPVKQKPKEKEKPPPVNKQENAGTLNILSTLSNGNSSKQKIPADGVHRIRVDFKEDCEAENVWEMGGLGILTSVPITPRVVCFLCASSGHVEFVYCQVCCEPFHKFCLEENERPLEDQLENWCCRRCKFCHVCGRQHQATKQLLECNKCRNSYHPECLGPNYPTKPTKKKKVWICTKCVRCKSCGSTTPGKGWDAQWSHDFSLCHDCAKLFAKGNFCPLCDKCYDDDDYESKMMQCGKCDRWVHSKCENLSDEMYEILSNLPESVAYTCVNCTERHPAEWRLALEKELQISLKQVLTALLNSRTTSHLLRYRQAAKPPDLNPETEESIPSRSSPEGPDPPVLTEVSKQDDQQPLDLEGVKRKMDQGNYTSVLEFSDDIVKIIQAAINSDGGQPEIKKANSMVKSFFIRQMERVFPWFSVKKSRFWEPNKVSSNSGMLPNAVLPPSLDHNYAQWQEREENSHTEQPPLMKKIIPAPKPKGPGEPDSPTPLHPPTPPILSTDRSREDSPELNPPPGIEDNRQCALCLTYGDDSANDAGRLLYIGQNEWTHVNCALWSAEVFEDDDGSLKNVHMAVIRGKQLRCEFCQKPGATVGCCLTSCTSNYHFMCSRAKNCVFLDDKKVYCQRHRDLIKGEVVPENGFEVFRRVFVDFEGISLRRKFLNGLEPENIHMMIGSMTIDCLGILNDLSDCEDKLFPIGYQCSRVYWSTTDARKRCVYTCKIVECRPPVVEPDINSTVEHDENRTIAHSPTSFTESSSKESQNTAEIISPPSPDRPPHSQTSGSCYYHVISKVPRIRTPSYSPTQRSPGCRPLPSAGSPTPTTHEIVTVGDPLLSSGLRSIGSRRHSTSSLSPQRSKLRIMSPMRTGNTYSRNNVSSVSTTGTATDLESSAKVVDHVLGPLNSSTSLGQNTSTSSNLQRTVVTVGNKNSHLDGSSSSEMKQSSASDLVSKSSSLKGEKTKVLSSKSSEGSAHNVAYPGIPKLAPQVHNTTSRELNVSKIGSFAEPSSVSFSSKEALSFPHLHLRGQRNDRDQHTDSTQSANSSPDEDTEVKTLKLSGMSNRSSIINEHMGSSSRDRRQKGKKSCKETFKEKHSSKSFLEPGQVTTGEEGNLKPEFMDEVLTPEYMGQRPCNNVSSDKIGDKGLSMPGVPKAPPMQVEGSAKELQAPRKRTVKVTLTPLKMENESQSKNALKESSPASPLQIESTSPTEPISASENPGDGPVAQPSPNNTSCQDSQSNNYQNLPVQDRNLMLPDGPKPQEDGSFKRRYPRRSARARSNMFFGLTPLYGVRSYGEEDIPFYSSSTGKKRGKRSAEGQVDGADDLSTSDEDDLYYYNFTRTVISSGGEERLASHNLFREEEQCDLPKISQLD
Menin/Histone-lysine N-methyltransferase MLL, sequence (Q03164 2719-3969 partner limits assumed, one chain of several): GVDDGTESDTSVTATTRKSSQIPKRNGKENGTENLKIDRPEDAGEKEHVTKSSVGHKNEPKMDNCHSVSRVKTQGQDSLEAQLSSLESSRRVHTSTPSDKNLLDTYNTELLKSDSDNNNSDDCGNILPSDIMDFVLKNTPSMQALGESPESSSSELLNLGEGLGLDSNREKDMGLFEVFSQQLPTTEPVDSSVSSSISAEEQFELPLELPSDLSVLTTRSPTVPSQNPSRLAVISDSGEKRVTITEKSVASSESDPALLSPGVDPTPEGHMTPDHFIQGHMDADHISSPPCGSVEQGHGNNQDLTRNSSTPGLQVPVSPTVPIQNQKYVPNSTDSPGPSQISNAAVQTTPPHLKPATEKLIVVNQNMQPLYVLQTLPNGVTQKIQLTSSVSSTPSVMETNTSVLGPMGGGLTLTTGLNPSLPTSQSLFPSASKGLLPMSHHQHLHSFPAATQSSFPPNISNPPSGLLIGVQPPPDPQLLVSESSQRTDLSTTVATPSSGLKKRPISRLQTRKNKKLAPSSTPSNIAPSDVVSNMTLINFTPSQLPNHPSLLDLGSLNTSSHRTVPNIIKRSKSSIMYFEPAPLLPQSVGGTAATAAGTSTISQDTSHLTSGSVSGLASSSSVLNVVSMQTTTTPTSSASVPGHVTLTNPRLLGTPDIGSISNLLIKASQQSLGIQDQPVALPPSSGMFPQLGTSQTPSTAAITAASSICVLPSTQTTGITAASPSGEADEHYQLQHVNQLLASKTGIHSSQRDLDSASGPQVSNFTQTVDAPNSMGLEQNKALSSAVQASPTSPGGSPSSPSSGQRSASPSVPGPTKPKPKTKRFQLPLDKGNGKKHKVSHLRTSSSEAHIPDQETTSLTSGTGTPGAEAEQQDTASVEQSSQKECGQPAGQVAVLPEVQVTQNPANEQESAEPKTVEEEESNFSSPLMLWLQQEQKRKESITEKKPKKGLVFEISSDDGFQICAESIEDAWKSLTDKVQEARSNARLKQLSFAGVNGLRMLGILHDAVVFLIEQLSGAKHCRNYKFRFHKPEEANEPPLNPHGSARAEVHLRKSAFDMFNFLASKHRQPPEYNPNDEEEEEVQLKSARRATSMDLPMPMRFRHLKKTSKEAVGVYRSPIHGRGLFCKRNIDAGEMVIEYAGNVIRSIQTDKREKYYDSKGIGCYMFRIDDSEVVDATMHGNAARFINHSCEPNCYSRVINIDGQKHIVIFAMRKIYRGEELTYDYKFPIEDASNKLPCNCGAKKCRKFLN

SMILES: CN(C)CCOc1ncnc2c1ccn2C1CCN(CC2CN(c3ccc(C#N)cc3)C2)CC1
- IC50 (Menin): > 10 µM
- IC50 (HL-60): > 10 µM
- IC50 (MV4-11 [1]): > 10 µM

SMILES: N#Cc1ccc(N2CC(CN3CCC(n4cc(-c5ccc(F)cc5)c5c(N)ncnc54)CC3)C2)cc1
- IC50 (Menin): 0.38 µM
- IC50 (HL-60): > 10 µM
- IC50 (SU-DHL-6): 6.87 µM
- IC50 (Pfeiffer): > 10 µM
- IC50 (Raji): > 10 µM
- IC50 (Ramos): > 10 µM
- IC50 (HCT-116): > 10 µM
- IC50 (MCF7): > 10 µM
- IC50 at 72 h [2]: > 10 µM
- viability at 1 µM (MV4-11 [3]): 91%
- Activity (MV4-11 [4]): 4.53%
- Activity (MV4-11 [5]): 4.23%
- Activity (MV4-11 [6]): 0.14%
- viability at 10 µM (MV4-11 [7]): 55.8%
- Activity (MV4-11 [8]): 8.52%
- Activity (MV4-11 [9]): 34.56%
- Activity (MV4-11 [10]): 1.09%
- viability at 0.1 µM (MV4-11 [11]): 93.9%
- Activity (MV4-11 [12]): 3.34%
- Activity (MV4-11 [13]): 2.75%
- Activity (MV4-11 [14]): 0.05%
- Activity (MV4-11 [15]): Dose-Dependent Effect
- Activity (MV4-11 [16]): Dose-Dependent Effect
- Activity (MV4-11 [17]): Tde
- Activity (MV4-11 [18]): Dose-Dependent Effect
- Activity (MV4-11 [19]): Tde
- Activity (MV4-11 [20]): 68.53%
- Activity (MV4-11 [21]): 31.47%
- Activity (MV4-11 [22]): 30.31%
- Activity (MV4-11 [23]): 69.67%
- Activity (MV4-11 [24]): 85.59%
- Activity (MV4-11 [25]): 14.39%
- IC50 (MV4-11 [1]): 1.07 µM

SMILES: Nc1ncnc2c1c(-c1ccc(F)cc1)cn2C1CCN(CC2CN(c3ccc(S(=O)(=O)C4CCC4)cc3)C2)CC1
- IC50 (Menin): 0.53 µM
- IC50 (HL-60): 8.8 µM
- IC50 (MV4-11 [1]): 1.69 µM

SMILES: CCS(=O)(=O)c1ccc(N2CC(CN3CCC(n4cc(-c5ccc(F)cc5)c5c(N)ncnc54)CC3)C2)cc1
- IC50 (Menin): 0.45 µM
- IC50 (HL-60): > 10 µM
- IC50 (MV4-11 [1]): 1.29 µM

SMILES: Nc1ncnc2c1c(-c1ccc(F)cc1)cn2C1CCN(CC2CN(c3ccc(S(=O)(=O)C4CCCC4)cc3)C2)CC1
- IC50 (Menin): 1.04 µM
- IC50 (HL-60): > 10 µM
- IC50 (MV4-11 [1]): 1.94 µM

SMILES: Cc1c(CN2CCC3(CC2)CN(c2ncnc4sc(CC(F)(F)F)cc24)C3)ccc2c1cc(C#N)n2CC(N)=O
- IC50 [26]: 0.008 µM

SMILES: CC(C)(C)OC(=O)N1CC(S(=O)(=O)c2ccc(N3CC(CN4CCC(n5cc(-c6ccc(F)cc6)c6c(N)ncnc65)CC4)C3)cc2)C1
- IC50 (Menin): 1.14 µM
- IC50 (HL-60): > 10 µM
- IC50 (MV4-11 [1]): 1.35 µM

SMILES: N#Cc1ccc(N2CC(CN3CCC(n4ccc5c(Cl)ncnc54)CC3)C2)cc1
- IC50 (Menin): > 10 µM
- IC50 (HL-60): > 10 µM
- IC50 (MV4-11 [1]): 6.54 µM

SMILES: N#Cc1ccc(N2CC(CN3CCC(n4ccc5c(N)ncnc54)CC3)C2)cc1
- IC50 (Menin): 1.47 µM
- IC50 (HL-60): > 10 µM
- IC50 (MV4-11 [1]): 5.2 µM
